Results published in article PMC6753678, “Fueling Open Innovation for Malaria Transmission-Blocking Drugs: Hundreds of Molecules Targeting Early Parasite Mosquito Stages” (Frontiers in Microbiology, 2019).
Like-named read-outs stand apart in the source and are kept apart here.

Legend:
[1] = tested on: 3D7-strain P. falciparum asexual parasites; assay: P. falciparum asexual growth inhibition assay (Pf GIA); assay type: cell-based, Plasmodium falciparum; conditions: dose response confirmation; read-out: Pf asexual growth inhibition assays IC50
In short: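 Read-out was lactate dehydrogenase activity measured by absorbance at 650 nm after freezing and thawing, against 50 μM chloroquine and DMSO controls. Before that, asexual 3D7 cultures (0.25% parasitemia, 2% hematocrit) had 72 h dose-response compound exposure at 37°C in 5% CO2/5% O2/90% N2; three independent replicates averaged.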

HepG2 cells = assay: HepG2 cytotoxicity assay; conditions: for IC50: read-out: HepG2 cytotoxicity assay IC50, dose response confirmation; for Pb ODA (this manuscript) HepG2 cytoxicity: HepG2 cytotoxicity listed with the Pb ODA data set (this manuscript)
In short: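 Cells are plated at 2,500 per well on compound-treated plates in MEM containing 10% fetal bovine serum and 1% NEAA, then incubated 48 h at 37°C.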

[2] = tested on: P. berghei ookinete development; conditions: for % inhibition, Replicate A / % inhibition, Replicate B: primary screen at 1 μM
[3] = unified HepG2 value across the three screens
[4] = read-out: Pb ODA IC50, this manuscript
[5] = read-out: Pb Ookinete development assay IC50, dose response confirmation
[6] = HepG2 values of the three screens unified
[7] = read-out: Pb ODA (this manuscript) IC50, P. berghei ookinete development assay, this manuscript

| Compound | IC50 [1] | IC50 (HepG2 cells) | Unified cytotox (HepG2 cells; [3]) | Is compound selective in assay? Pb ODA active? ([2]; 1: YES, 0: NO) | % inhibition, Replicate A [2] | % inhibition, Replicate B [2] | IC50 [2, 4] | IC50 [2, 5] | HepG2 cytoxicity (Pb ODA, this manuscript) (HepG2 cells) | Unified cytotox (HepG2 cells; [6]) | IC50 ([2]; read-out: Pb ODA IC50) | IC50 ([2]; read-out: Pb Ookinete development assay IC50) | Pb ODA (this manuscript) HepG2 cytoxicity (HepG2 cells) | Is compound selective in assay? Pb ODA active? [2] | IC50 [2, 7] |
| --- | --- | --- | --- | --- | --- | --- | --- | --- | --- | --- | --- | --- | --- | --- | --- |
| Cl.O=c1cc(NCCCNCc2sc(Br)c(Br)c2Br)[nH]c2ccccc12 [TCMDC-139647] | 977 nM | 34700 nM | 34.67 µM | 1 (1: YES) | 55.06% | 82.69% | 1960 nM | 1960 nM |  |  |  |  |  |  |  |
| CC(C)CN1CCN(c2nc(C#N)c3c(c2C(=S)NC2CCCCC2)CC(C)(C)OC3)CC1 [TCMDC-124173] | 415 nM | 100000 nM | 100.00 µM | 1 (1: YES) | 37.56% | 54.94% | 4890 nM | 4890 nM |  |  |  |  |  |  |  |
| COc1ccc2nccc([C@@H](O)CN3CCC(NC(=O)/C=C/c4c[nH]c5c(C)cccc45)CC3)c2c1 [TCMDC-141000] | 433 nM | 51300 nM |  | 1 (1: YES) | 72.27% | 60.86% | 1900 nM | 1900 nM | 51.29 µM | 51.29 µM |  |  |  |  |  |
| C/C=C/COc1ccc(-c2c(C)[nH]c(C)c(Cl)c2=O)cc1 [TCMDC-134729] | 281 nM | 100000 nM |  | 1 (1: YES) | 83.52% | 96.22% | 470 nM | 469 nM |  | 100.00 µM |  |  |  |  |  |
| CC[C@@]1(O)C(=O)OCc2c1cc1n(c2=O)Cc2c-1nc1cc3c(cc1c2CN1CCOCC1)OCO3.O=C(O)C(F)(F)F [TCMDC-131876] | 7 nM | 470 nM | 0.47 µM | 0 (0: NO) | 79.37% | 70.89% | 1250 nM | 1250 nM |  |  |  |  |  |  |  |
| CCC(C)(C)n1c(C)cc2c3c(N)nc(N)nc3ccc21 [TCMDC-137307] | 0.9 nM | 1.69 nM |  |  | 47.56% | 73.34% |  |  | 0.00169 µM | 0.00169 µM | 1190 nM | 1190 nM |  |  |  |
| O=C(Nc1ccc(OC2CCN(Cc3ccc(F)cc3)CC2)c(Cl)c1)c1cccs1.O=C(O)C(F)(F)F [TCMDC-133746] | 242 nM | 38900 nM |  |  | 51.32% | 44.22% |  | 1160 nM |  |  |  |  | 38.90 µM | 1 (key: 1: YES; 0: NO) | 1160 nM |
| COc1ccc2nccc([C@@H](O)CN3CCC(NCc4ccc5c(c4)NC(=O)CO5)CC3)c2c1.Cl [TCMDC-140793] | 721 nM | 28200 nM |  |  | 51.85% | 48.48% |  | 3630 nM |  |  |  |  | 28.18 µM | 0 (key: 1: YES; 0: NO) | 3630 nM |
| Cc1[nH]c(C)c(-c2ccc(CCc3ccc(C(F)(F)F)cc3)nc2)c(=O)c1Cl [TCMDC-136051] | 52 nM | 56900 nM |  | 1 (1: YES) | 100.56% | 100.86% | 140 nM | 144 nM | 56.89 µM | 56.89 µM |  |  |  |  |  |
| COc1ccc2ncc(F)c(CCN3C4CCC3CC(NCc3ccc5c(c3)OCCO5)C4)c2n1.Cl (stereo not drawn) [TCMDC-135638] | 995 nM | 39800 nM |  |  | 30.43% | 54.56% |  | 4240 nM |  |  |  |  | 39.81 µM | 0 (key: 1: YES; 0: NO) | 4240 nM |
| CC1CN(Cc2ccccc2)CCN1c1ccc(NC(=O)c2cccs2)cc1.O=C(O)C(F)(F)F (stereo not drawn) [TCMDC-135005] | 504 nM | 57500 nM |  |  | 105.18% | 99.00% |  | 732 nM |  |  |  |  | 57.54 µM | 1 (key: 1: YES; 0: NO) | 730 nM |
| Nc1nc(N)c2c(ccc3c2ccn3CCCF)n1 [TCMDC-138623] | 122 nM | 1100 nM |  | 0 (0: NO) | 92.24% | 33.21% | 1890 nM | 1890 nM | 1.10 µM | 1.10 µM |  |  |  |  |  |
| Cc1[nH]c(C)c(-c2ccc(-c3cccc(Cl)c3)nc2)c(=O)c1Cl [TCMDC-136300] | 203 nM | 56200 nM |  | 1 (1: YES) | 90.77% | 81.67% | 680 nM | 675 nM | 56.23 µM | 56.23 µM |  |  |  |  |  |
| O=C(O)C(F)(F)F.O=c1[nH]ccc2nc(N[C@@H]3CCCNC3)nc(Nc3ccc(S(=O)(=O)N4CCOCC4)cc3)c12 [TCMDC-135038] | 347 nM | 45700 nM | 45.71 µM | 1 (1: YES) | 53.41% | 58.16% | 1550 nM | 1540 nM |  |  |  |  |  |  |  |
| CCOc1cccc(C(=O)Nc2nonc2-c2ccc(OC)c(OC)c2)c1 [TCMDC-125179] | < 0.2 nM | 6760 nM | 6.76 µM | 0 (0: NO) | 52.92% | 35.19% | 7640 nM | 7640 nM |  |  |  |  |  |  |  |
| COc1ccc2ncc(F)c(NC(=O)C3CCC(NCc4cc5cc(F)cc(F)c5[nH]4)CC3)c2n1.Cl (stereo not drawn) [TCMDC-136455] | 2430 nM | 15500 nM |  |  | 109.55% | 94.56% |  | 1020 nM |  |  |  |  | 15.49 µM | 1 (key: 1: YES; 0: NO) | 1020 nM |
| CCCCCCCc1c(C)nc2cccc(OC)c2c1O [TCMDC-138014] | 1990 nM | 5500 nM |  |  | 63.12% | 36.77% |  | 1140 nM |  |  |  |  | 5.50 µM | 0 (key: 1: YES; 0: NO) | 1150 nM |
| Cc1[nH]c(C)c(-c2ccc(OCc3ccc(F)cc3)nc2)c(=O)c1Br [TCMDC-135657] | 173 nM | 100000 nM |  | 1 (1: YES) | 61.60% | 80.51% | 600 nM | 597 nM |  | 100.00 µM |  |  |  |  |  |
| COc1ccc(Cc2c(N)nc3nc(N)nc(N)c3c2C)cc1.Cl [TCMDC-138061] | 142 nM | 55 nM |  |  | -0.33% | 51.34% |  | 5180 nM |  |  |  |  | 0.055 µM | 0 (key: 1: YES; 0: NO) | 5180 nM |
